How the values were obtained:
[1] = test system: tumor tissues; details: prior art CN111196896A; cited from earlier work
[2] = Subcutaneous HepG2 tumor-bearing mouse models for in vivo imaging; details: tail vein, 0.5 mg/kg
Experimental: Subcutaneous HepG2 Tumor-Bearing Mouse Models (Human-Derived Liver Cancer Cells) for In Vivo Imaging
Test samples: the heptamethine cyanine near-infrared fluorescent dyes provided by Examples 1-4, and the heptamethine cyanine near-infrared fluorescent dyes provided by Comparative Examples 1-3.
Testing method: The subcutaneous HepG2 tumor-bearing mouse models were subjected to tail vein administration of the above samples (0.5 mg/kg, 100 μL of glucose injection), respectively. Indocyanine green (0.5 mg/kg, 100 μL of glucose injection) was taken as a control. After the administration, fluorescence imaging was performed using a surgical fluorescence imaging system (NANJING NUOYUAN MEDICAL DEVICES CO., LTD, 10B), at 0 h (before administration), 6 h, 12 h, 24 h, and 48 h in sequence.

- hepatic accumulation and metabolism [2]: hepatic accumulation and non-metabolism
Compound: CC1(C)C(/C=C/C2=C(Cl)C(=C/C=C3/N(CCCS(=O)(=O)O)c4ccccc4C3(C)C)/CCC2)=[N+](CCCS(=O)(=O)O)c2ccc(S(=O)(=O)O)cc21 [Comparative Example 1]
- hepatic accumulation [1]: deficiency of hepatic accumulation
- tumor retention [1]: exceeding 48 h
- tumor targeting capability compared with ICG [1]: stronger

Source: patent US12728173B2, “Heptamethine cyanine near-infrared fluorescent dye, preparation method therefor and use thereof” (NANJING NUOYUAN MEDICAL DEVICES CO., LTD, priority 2024, dated 2026)
